Results on 13 compounds are retold here after patent US8921363B2, “Derivatives of 1 H-isoindol-3-amine, 1 H-iso-aza-indol-3amine, 3,4-dihydroisoquinolin-1-amine, and 1,4-dihydroisoquinolin-3-amine as beta-secretase inhibitors” (Amgen Inc., priority 2010, dated 2014).

The target in one experiment is BACE1 (Homo sapiens, UniProt P56817). Kind of experiment: In vitro enzymatic BACE FRET assay. In kind it is biochemical. How it is done:
In Vitro Enzymatic BACE FRET (fluorescence resonance energy transfer) Assay (Enzyme Assay data in the Example Table I)
The assay buffer used in this screen is 0.05 M acetate, pH 4.2, 10% DMSO final, 100 uM genapol (which is a nonionic detergent, below its Critical Micelle Concentration). […] This assay is effectively started by the addition of FRET substrate (50 nM) and the combination is incubated for one hour. The FRET assay is terminated with by addition of Tris buffer, which raises the pH to neutrality, and the fluorescence is determined. The FRET substrate is a peptide with commercially available fluorophore and quencher, on opposite sides of the BACE cleavage site. Proteolytic cleavage of the FRET substrate releases quenching of fluorescence (excitation […] and […]).

The test system of experiment [1] is Aβ40 in conditioned medium of cells expressing amyloid precursor protein. Kind of experiment: In vitro BACE cell-based assay (HEK cell assay, Aβ40 sandwich ELISA). Conditions: Homo sapiens, HEK293; average IC50; Aβ40 after 24 h incubation. For orientation: In an ELISA, binding on a coated surface is turned into a signal by an enzyme label.

pIC50: −log10 of the molar value.

Chain of BACE1 (P56817 46-501): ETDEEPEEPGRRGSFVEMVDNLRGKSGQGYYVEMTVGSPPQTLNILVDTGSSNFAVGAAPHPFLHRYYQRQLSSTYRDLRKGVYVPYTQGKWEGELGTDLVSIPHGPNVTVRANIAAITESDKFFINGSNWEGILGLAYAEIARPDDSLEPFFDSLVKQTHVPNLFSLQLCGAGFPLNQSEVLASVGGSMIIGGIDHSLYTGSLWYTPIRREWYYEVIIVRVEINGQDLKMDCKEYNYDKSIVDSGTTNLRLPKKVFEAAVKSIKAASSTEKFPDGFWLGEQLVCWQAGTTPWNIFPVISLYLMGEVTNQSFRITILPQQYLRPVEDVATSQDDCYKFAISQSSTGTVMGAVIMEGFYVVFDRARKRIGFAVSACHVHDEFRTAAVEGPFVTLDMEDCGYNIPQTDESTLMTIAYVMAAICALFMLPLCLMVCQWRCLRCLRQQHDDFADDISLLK

In the case of `NC1=N[C@@]2(c3cc(Br)ccc3Oc3c2cc(Cl)nc3F)c2cnccc21` (single isomer, unassigned) [Example 14c-1], the pIC50 (on BACE1; in experiment [1]) was below 5.00 each time.
In the case of `NC1=N[C@]2(c3cc(Br)ccc3Oc3c2cc(Cl)nc3F)c2cnccc21` (single isomer, unassigned) [Example 14c-2], the pIC50 (commonly the IC50 on a negative log10 scale, so that one unit is a factor of ten) at BACE1 is 5.46; in experiment [1] it was below 5.00.
The matching figures for `NC1=N[C@@]2(c3cc(Br)ccc3Oc3c2cc(Cl)nc3F)c2cccnc21` (single isomer, unassigned) [Example 17c-1]: below 5.00 and below 5.00.
The matching figures for `NC1=N[C@]2(c3cc(Br)ccc3Oc3c2cc(Cl)nc3F)c2cccnc21` (single isomer, unassigned) [Example 17c-2]: 5.46 and below 5.00.
The matching figures for `NC1=NC2(c3cc(-c4cccnc4F)ccc3Oc3c2cc(Cl)nc3F)c2ccccc21` (centres unmarked) [Example 5d, 3-chloro-1-fluoro-7-(2-fluoropyridin-3-yl)spiro[chromeno[2,3-c]pyridine-5,1′-isoindol]-3′-amine]: 8.22 and 6.65.
Regarding `NC1=N[C@]2(c3cc(-c4cccnc4F)ccc3Oc3c2cc(C2=CCCOC2)nc3F)c2cnccc21` [Example 14-E, (S)-3-(5,6-dihydro-2H-pyran-3-yl)-1-fluoro-7-(2-fluoropyridin-3-yl)spiro[chromeno[2,3-c]pyridine-5,3′-pyrrolo[3,4-c]pyridin]-1′-amine], the values for the pIC50 (on BACE1; in experiment [1]) were 9.30 and 8.70, respectively.
Regarding `NC1=NC2(c3cc(Br)ccc3Oc3c2cc(Cl)nc3F)c2cnccc21` (centres unmarked) [Example 14c, 7-bromo-3-chloro-1-fluorospiro[chromeno[2,3-c]pyridine-5,3′-pyrrolo[3,4-c]pyridin]-1′-amine], the negative logarithm of the IC50 (pIC50) on BACE1 is 5.34; in experiment [1], below 5.00.
In the case of `NC1=NC2(c3cc(-c4cccnc4F)ccc3Oc3c2cc(Cl)nc3F)c2cnccc21` (centres unmarked) [Example 14d, 3-chloro-1-fluoro-7-(2-fluoropyridin-3-yl)spiro[chromeno[2,3-c]pyridine-5,3′-pyrrolo[3,4-c]pyridin]-1′-amine], the negative-log IC50 (pIC50) on BACE1 was 8.43; in experiment [1] it was 6.11.
In the case of `NC1=N[C@@]2(c3cc(-c4cccnc4F)ccc3Oc3c2cc(Cl)nc3F)c2cnccc21` [Example 14d-1, (R)-3-chloro-1-fluoro-7-(2-fluoropyridin-3-yl)spiro[chromeno[2,3-c]pyridine-5,3′-pyrrolo[3,4-c]pyridin]-1′-amine], the pIC50 on BACE1 was 5.18; in experiment [1] it was below 5.00.
The matching figures for `NC1=N[C@]2(c3cc(-c4cccnc4F)ccc3Oc3c2cc(Cl)nc3F)c2cnccc21` [Example 14d-2, (S)-3-chloro-1-fluoro-7-(2-fluoropyridin-3-yl)spiro[chromeno[2,3-c]pyridine-5,3′-pyrrolo[3,4-c]pyridin]-1′-amine]: 8.60 and 7.45.
For the compound `NC1=NC2(c3cc(Br)ccc3Oc3cnc(Cl)cc32)c2ccncc21` (centres unmarked) [Example 16, 7-bromo-3-chlorospiro[chromeno[2,3-c]pyridine-5,1′-pyrrolo[3,4-c]pyridin]-3′-amine], the pIC50 on BACE1 is 5.04; in experiment [1] it was below 5.00.
The matching figures for `NC1=N[C@]2(c3cc(-c4cccnc4F)ccc3Oc3c2cc(C2=CCCOC2)nc3F)c2cccnc21` [Example 17-F, (S)-3-(5,6-dihydro-2H-pyran-3-yl)-1-fluoro-7-(2-fluoropyridin-3-yl)spiro[chromeno[2,3-c]pyridine-5,5′-pyrrolo[3,4-b]pyridin]-7′-amine]: 9.15 and 8.52.
The matching figures for `NC1=N[C@]2(c3cc(-c4cccnc4F)ccc3Oc3c2cc(N2CCOCC2)nc3F)c2cccnc21` [Example 17-G, (S)-1-fluoro-7-(2-fluoropyridin-3-yl)-3-morpholinospiro[chromeno[2,3-c]pyridine-5,5′-pyrrolo[3,4-b]pyridin]-7′-amine]: 9.00 and 8.70.
